Key:
[1] = target: T1, Alpha-1A adrenergic receptor (Rattus norvegicus, UniProt P43140); assay: DRUGMATRIX: Alpha-1A adrenergic receptor radioligand binding (ligand: prazosin); format: cell membranes, Wistar, Submaxillary gland, Membrane; details: Not Active = under 50% inhibition at 10 µM
T1 sequence (P43140 whole entry): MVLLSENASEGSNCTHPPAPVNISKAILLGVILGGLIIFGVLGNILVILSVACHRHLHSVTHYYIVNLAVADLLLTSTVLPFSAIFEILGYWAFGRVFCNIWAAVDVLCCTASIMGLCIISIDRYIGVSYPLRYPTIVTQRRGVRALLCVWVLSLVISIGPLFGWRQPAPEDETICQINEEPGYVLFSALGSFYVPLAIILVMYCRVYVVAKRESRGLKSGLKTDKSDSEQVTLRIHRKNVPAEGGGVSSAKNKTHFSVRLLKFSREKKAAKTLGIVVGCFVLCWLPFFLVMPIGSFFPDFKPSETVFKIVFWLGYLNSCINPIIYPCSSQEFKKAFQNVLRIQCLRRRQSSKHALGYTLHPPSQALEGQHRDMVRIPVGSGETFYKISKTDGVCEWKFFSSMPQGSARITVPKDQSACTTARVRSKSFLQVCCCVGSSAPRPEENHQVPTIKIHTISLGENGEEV

B2 bradykinin receptor = target: T2, B2 bradykinin receptor (Homo sapiens, UniProt P30411); format: cell membranes, Membrane; details: chem-1; further: in other assays of this panel Not Active means under 50% inhibition at 10 µM
T2 sequence (P30411 whole entry): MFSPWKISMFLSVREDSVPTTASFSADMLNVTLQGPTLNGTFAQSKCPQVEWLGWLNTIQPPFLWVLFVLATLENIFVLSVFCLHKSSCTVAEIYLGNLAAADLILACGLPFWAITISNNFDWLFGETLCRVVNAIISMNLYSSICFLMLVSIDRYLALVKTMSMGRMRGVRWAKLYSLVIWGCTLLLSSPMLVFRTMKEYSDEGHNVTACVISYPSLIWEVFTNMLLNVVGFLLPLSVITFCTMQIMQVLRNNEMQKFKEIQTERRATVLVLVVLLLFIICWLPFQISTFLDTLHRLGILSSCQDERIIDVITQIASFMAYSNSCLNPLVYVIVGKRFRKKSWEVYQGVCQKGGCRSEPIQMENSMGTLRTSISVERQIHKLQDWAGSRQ

Substance-K receptor = target: T3, Substance-K receptor (Homo sapiens, UniProt P21452); format: cell membranes, CHO, Membrane; details: cho; further: in other assays of this panel Not Active means under 50% inhibition at 10 µM
T3 sequence (P21452 whole entry): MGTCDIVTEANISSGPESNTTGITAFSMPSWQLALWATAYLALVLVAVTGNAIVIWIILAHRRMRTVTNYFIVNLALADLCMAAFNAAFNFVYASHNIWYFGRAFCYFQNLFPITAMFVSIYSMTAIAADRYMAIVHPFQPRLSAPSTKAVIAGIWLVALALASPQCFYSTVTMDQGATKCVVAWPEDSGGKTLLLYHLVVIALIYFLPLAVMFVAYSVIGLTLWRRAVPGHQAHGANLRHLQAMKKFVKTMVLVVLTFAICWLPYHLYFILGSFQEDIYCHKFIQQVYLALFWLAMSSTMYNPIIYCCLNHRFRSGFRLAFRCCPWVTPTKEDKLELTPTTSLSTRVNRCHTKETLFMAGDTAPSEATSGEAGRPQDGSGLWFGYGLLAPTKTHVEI

[2] = target: T4, Neuropeptide Y receptor type 1 (Homo sapiens, UniProt P25929); format: cell membranes, Membrane; details: sk-n-mc; further: in other assays of this panel Not Active means under 50% inhibition at 10 µM
T4 sequence (P25929 whole entry): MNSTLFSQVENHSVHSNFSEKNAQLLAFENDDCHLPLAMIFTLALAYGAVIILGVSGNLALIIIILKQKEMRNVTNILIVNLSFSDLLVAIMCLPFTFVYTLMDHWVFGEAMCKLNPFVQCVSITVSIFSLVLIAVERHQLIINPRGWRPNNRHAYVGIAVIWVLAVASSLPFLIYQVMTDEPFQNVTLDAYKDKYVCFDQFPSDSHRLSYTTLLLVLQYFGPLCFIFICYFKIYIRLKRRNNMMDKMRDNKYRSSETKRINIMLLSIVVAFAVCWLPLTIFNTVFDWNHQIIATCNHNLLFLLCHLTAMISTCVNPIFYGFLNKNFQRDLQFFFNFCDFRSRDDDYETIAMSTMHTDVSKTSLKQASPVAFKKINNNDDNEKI

[3] = target: T5, Neuropeptide Y receptor type 2 (Homo sapiens, UniProt P49146); format: cell membranes, Membrane; details: kan-ts; further: in other assays of this panel Not Active means under 50% inhibition at 10 µM
T5 sequence (P49146 whole entry): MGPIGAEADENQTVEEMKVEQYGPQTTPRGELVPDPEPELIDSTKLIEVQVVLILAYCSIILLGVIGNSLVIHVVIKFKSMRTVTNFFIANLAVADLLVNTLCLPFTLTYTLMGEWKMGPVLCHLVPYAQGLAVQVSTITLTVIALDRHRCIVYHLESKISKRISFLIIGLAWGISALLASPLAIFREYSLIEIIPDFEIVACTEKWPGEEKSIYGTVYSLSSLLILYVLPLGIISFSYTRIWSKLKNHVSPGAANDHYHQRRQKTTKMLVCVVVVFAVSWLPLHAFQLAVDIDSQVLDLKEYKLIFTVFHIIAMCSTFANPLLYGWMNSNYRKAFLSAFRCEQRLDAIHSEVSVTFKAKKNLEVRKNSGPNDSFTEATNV

Nitric oxide synthase 1 = Nitric oxide synthase 1 (Rattus norvegicus, UniProt P29476); format: tissue-based, Cerebellum; further: in other assays of this panel Not Active means under 50% inhibition at 10 µM
Sequence of Nitric oxide synthase 1 (P29476 whole entry): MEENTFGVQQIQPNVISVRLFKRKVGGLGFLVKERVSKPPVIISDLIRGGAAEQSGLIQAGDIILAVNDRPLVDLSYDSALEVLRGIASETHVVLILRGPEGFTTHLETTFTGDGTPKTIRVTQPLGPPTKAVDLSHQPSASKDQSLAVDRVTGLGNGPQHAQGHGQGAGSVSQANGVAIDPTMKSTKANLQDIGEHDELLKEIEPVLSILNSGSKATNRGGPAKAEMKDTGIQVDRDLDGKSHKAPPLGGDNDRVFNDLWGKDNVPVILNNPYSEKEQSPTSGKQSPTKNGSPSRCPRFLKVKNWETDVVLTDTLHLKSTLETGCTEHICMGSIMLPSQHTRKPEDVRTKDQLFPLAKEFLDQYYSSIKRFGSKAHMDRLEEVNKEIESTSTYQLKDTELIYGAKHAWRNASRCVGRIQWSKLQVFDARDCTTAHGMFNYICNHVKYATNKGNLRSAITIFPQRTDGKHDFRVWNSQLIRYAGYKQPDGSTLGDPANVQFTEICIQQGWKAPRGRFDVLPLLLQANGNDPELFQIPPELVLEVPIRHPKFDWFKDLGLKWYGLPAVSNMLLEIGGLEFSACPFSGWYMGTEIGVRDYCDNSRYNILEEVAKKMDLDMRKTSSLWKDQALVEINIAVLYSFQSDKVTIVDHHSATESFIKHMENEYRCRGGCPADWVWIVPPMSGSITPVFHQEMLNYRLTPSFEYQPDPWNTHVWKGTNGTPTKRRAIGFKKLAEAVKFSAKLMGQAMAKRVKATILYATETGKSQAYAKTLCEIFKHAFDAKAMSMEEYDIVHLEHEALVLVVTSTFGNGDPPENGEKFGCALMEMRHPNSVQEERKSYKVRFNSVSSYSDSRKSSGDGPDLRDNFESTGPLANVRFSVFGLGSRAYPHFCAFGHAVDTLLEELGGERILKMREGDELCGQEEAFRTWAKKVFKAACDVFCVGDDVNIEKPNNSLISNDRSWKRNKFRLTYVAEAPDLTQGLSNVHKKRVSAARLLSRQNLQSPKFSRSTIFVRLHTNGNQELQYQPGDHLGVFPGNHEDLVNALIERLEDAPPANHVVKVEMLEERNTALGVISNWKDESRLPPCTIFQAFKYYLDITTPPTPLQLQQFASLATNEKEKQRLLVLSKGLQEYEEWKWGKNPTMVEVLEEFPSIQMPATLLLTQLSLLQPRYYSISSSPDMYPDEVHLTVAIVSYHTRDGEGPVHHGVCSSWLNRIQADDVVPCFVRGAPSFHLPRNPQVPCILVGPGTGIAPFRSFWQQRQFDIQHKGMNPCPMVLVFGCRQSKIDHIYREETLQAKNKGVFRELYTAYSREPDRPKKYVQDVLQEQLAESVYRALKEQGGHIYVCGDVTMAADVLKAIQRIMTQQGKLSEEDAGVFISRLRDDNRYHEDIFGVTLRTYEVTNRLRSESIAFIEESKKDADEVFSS

[4] = target: Receptor tyrosine-protein kinase erbB-2 (Homo sapiens, UniProt P04626); assay: biochemical; format: cell-based, Insect cells; details: insect cells
Sequence of Receptor tyrosine-protein kinase erbB-2 (P04626 whole entry): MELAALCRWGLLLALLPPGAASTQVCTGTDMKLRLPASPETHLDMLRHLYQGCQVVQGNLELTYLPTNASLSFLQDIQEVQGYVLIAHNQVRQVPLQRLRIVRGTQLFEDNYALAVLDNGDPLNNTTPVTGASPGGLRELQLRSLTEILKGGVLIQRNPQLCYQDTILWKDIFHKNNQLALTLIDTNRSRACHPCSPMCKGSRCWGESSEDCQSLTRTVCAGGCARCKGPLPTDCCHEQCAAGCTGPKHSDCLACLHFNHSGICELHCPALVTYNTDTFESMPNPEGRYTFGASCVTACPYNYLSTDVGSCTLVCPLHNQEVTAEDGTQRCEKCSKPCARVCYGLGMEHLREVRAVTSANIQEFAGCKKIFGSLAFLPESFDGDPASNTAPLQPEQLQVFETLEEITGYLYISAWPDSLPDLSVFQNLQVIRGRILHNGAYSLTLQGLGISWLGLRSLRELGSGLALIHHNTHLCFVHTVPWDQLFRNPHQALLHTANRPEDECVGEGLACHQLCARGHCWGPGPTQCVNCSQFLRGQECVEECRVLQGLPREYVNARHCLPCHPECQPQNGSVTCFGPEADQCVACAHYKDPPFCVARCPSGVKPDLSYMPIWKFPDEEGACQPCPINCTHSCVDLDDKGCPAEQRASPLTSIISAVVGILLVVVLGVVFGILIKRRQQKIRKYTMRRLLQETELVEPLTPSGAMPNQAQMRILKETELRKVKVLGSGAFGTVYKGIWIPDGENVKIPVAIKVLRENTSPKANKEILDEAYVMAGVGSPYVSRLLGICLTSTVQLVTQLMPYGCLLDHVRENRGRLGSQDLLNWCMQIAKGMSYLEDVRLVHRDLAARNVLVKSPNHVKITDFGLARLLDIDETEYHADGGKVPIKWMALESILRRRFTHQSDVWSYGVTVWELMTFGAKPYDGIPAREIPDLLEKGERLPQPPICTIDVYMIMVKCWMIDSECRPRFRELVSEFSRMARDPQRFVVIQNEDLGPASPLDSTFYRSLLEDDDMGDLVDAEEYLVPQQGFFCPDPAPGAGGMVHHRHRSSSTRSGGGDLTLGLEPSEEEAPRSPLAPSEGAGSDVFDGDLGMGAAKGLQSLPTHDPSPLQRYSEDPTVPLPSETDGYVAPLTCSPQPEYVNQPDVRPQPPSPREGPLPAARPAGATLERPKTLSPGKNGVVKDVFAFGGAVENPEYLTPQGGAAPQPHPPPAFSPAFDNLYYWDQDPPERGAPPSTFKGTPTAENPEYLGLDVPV

Measured: IC50

CCCCN1CCCC[C@H]1C(=O)Nc1c(C)cccc1C [LEVOBUPIVACAINE]
Not Active: [1] | B2 bradykinin receptor | Substance-K receptor | [2] | [3] | Nitric oxide synthase 1 | [4]

Cc1onc(O)c1CC(N)C(=O)O (racemic) [(R,S)-AMPA]
Not Active: [1] | B2 bradykinin receptor | Substance-K receptor | [2] | [3] | Nitric oxide synthase 1 | [4]

CC1CC(OC(=O)C(O)c2ccccc2)CC(C)(C)C1 (centres undefined) [CYCLANDELATE]
Not Active: [1] | B2 bradykinin receptor | Substance-K receptor | [2] | [3] | Nitric oxide synthase 1 | [4]

COCCc1ccc(OCC(O)CNC(C)C)cc1 (centres undefined) [METOPROLOL]
Not Active: [1] | B2 bradykinin receptor | Substance-K receptor | [2] | [3] | Nitric oxide synthase 1 | [4]

Cc1ccc(-c2cc(C(F)(F)F)nn2-c2ccc(S(N)(=O)=O)cc2)cc1 [CELECOXIB]
Not Active: [1] | B2 bradykinin receptor | Substance-K receptor | [2] | [3] | Nitric oxide synthase 1 | [4]

c1ccc(Nc2ccc(Nc3ccccc3)cc2)cc1
Not Active: [1] | B2 bradykinin receptor | Substance-K receptor | [2] | [3] | Nitric oxide synthase 1 | [4]

Cc1onc(-c2ccccc2Cl)c1C(=O)N[C@@H]1C(=O)N2[C@@H]1SC(C)(C)[C@@H]2C(=O)O [CLOXACILLIN]
Not Active: [1] | B2 bradykinin receptor | Substance-K receptor | [2] | [3] | Nitric oxide synthase 1 | [4]

CC1=C2C(=CO[C@H](C)[C@H]2C)C(O)=C(C(=O)O)C1=O [CITRININ]
Not Active: [1] | B2 bradykinin receptor | Substance-K receptor | [2] | [3] | Nitric oxide synthase 1 | [4]

CC(C)C(=O)Nc1ccc([N+](=O)[O-])c(C(F)(F)F)c1 [FLUTAMIDE]
Not Active: [1] | B2 bradykinin receptor | Substance-K receptor | [2] | [3] | Nitric oxide synthase 1 | [4]

CC[C@@]1(O)C[C@H](O[C@H]2C[C@H](N(C)C)[C@H](O[C@H]3C[C@H](O)[C@H](O[C@H]4CCC(=O)[C@H](C)O4)[C@H](C)O3)[C@H](C)O2)c2c(cc3c(c2O)C(=O)c2c(O)cccc2C3=O)[C@H]1C(=O)OC [ACLARUBICIN]
Not Active: [1] | B2 bradykinin receptor | Substance-K receptor | [2] | [3] | Nitric oxide synthase 1 | [4]

Nc1nc2c(ncn2CCC(CO)CO)c(=O)[nH]1 [PENCICLOVIR]
Not Active: [1] | B2 bradykinin receptor | Substance-K receptor | [2] | [3] | Nitric oxide synthase 1 | [4]

O=c1oc2ccccc2c(O)c1Cc1c(O)c2ccccc2oc1=O [DICUMAROL]
Not Active: [1] | B2 bradykinin receptor | Substance-K receptor | [2] | [3] | Nitric oxide synthase 1 | [4]

— ChEMBL document CHEMBL1909046, “DrugMatrix in vitro pharmacology data”
